Test results: paper PMC8587999, “Assessment of the Activity of Decoquinate and Its Quinoline-O-Carbamate Derivatives against Toxoplasma gondii In Vitro and in Pregnant Mice Infected with T. gondii Oocysts” (Molecules, 2021)
Where two headings read alike, the source gives them in different places.

Experiments:
[1] = tested on: T. gondii β-gal tachyzoites; test: IC50 determination with T. gondii β-gal tachyzoites grown in HFF monolayers; format: cell-based, Toxoplasma gondii; details: for Selectivity Index: HFF vs T. gondii, compound applied prior to / concomitantly with infection; for IC50: Toxoplasma gondii, Tg-β-gal in HFF, [upper, lower limit of 95% CI], read-out: IC50 T. gondii (nM) [LS
Method: The efficacy of DCQ in vitro was determined using T. gondii β-gal constitutively expressing β-galactosidase grown in HFF monolayers. […] The low IC50 values and the low degree of cytotoxicity against HFF host cells in vitro encouraged us to examine the efficacy of oral treatment of CD1 mice infected with T. gondii oocysts with DCQ at 10 mg/kg/day for 5 days.
Due to the negative effects of treatment with DCQ, we investigated the efficacy in vitro of the three DCQ derivatives RMB054, RMB055 and RMB060 (Figure 1) in comparison to DCQ. Different concentrations of DCQ and the derivatives in DMSO were added to HFF either concomitantly with infection of T. gondii-β-gal tachyzoites, or 3 h after infection. […] The corresponding dose-response curves are shown in Supplementary Materials Figure S1. The viability of uninfected HFF was not impaired by the compounds up to concentrations of 5 µM (DCQ and RMB054) or 10 µM (RMB055, RMB060) (Table 1).
(§1) HFF cytotoxicity assessments and IC50 determinations using cultures of Tg-β-gal tachyzoites grown in HFF were carried out as described previously. IC50 values were calculated with the logit-log-transformation of the relative growth and subsequent regression analysis was done with the corresponding software tool contained in Microsoft Excel software package (Microsoft, Seattle, WA). For the long-term treatments, HFF grown in T25 culture flasks were infected with 5 × 10^5 TgMe49 tachyzoites, and after 4.5 h 0.5 μM DCQ, RMB054 or RMB060 were added. Infected cultures treated with the highest corresponding concentration of DMSO (0.5%) served as controls. Prolonged treatments for up to 24 days were carried out, with the addition of fresh medium containing the respective drug every 3–4 days. Cultures were inspected by light microscopy on a daily basis. On days 3, 6, 9, 13, 16, 20 and 24, the compound-containing medium was removed, and parasites were maintained without drug pressure until host cell lysis (plaque formation) was evident.

[2] = tested on: human foreskin fibroblasts (HFF); test: HFF cytotoxicity assessment; format: cell-based; details: for IC50: Homo sapiens, Fibroblast, uninfected HFF, no decline in viability over the concentration range
Method: as §1

[3] = tested on: BAG1 (bradyzoite antigen 1) expression in T. gondii Me49; test: Immunofluorescence staining for BAG1 expression in TgMe49-infected HFF; format: cell-based, Toxoplasma gondii; details: treatment for 48 h
Method: For immunofluorescence microscopy, 4 × 10^4 HFF were grown on glass coverslips for 24 h to form a sub-confluent monolayer and were exposed to 1.2 × 10^5 TgMe49 tachyzoites during 4 h at 37 °C and 5% CO2. The medium was replaced and supplemented with 20 nM DCQ and RMB060, or medium containing DMSO as control. Cultures infected with TgPgSp1 (low passage number) served as positive control for BAG1 (bradyzoite antigen 1) expression. Infected cells were cultured for 16 h, 24 h, and 48 h and fixed and labelled for immunofluorescence staining as described previously. A polyclonal rabbit anti-BAG1 antiserum was applied at 1:200 dilution, followed by a goat-anti-rabbit fluorescein-isothiocyanate conjugate (1:300), the monoclonal mouse anti-TgSAG1 antibody was diluted (1:100), followed by goat anti-mouse conjugated to tetramethylrhodamine-isothiocyanate at 1:300. Subsequently, samples were mounted in H-1200 Vectashield mounting medium (Vector Laboratories, Burlingame, CA, USA) containing 4,6-diamidino-2-phenylindole and were viewed on a Nikon E80i fluorescence microscope (Tokyo, Japan). Processing of images was performed using Openlab 5.5.2 (Improvision, PerkinElmer, Waltham, MA, USA) and the ImageJ software, version 1.53 m.

[4] = compound added 3 h post-infection, LI] Compound Added 3 h Post-infection
[5] = compound added prior to / concomitantly with infection, LI] Compound Added Prior to Infection

CCCCCCCCCCOc1cc2c(OC(=O)N3CCN(CC)C(=O)C3=O)c(C(=O)OCCOC)cnc2cc1OCC [RMB054]
Selectivity Index [1]: >435 | IC50 [1, 4]: 11.4 nM | IC50 [1, 5]: 11.5 nM | Concentration up to which viability of uninfected HFF was not impaired [2]: 5 µM | IC50 [2]: > 5 µM | Expression of the bradyzoite marker BAG1 [3]: not clearly detectable

CCCCCCCCCCOc1cc2c(OC(=O)N3CCN(S(C)(=O)=O)C3=O)c(C(=O)OCCOC)cnc2cc1OCC [RMB055]
Selectivity Index [1]: >50 | IC50 [1, 4]: 227 nM | IC50 [1, 5]: 200 nM | Concentration up to which viability of uninfected HFF was not impaired [2]: 10 µM | IC50 [2]: > 10 µM
